In US20090306058A1, “Sulphone Derivatives for Treatment of Cancer” (priority 2005, published 2009):

Test system: Cells expressing Notch (ALL-SIL, DND-41, HPB-ALL or TALL-1)
Assay: Assay for Cell Cycle Arrest
Format: cell-based
Settings: concentrations up to 10 μM, incubation typically 4-8 days, in comparison to untreated controls
Experimental: Cells expressing Notch (ALL-SIL, DND-41, HPB-ALL or TALL-1) (Weng et al, Science, 306 (2004), 269-71) were incubated in the presence or absence of a compound of the instant invention (e.g. the compound of Examples 2 and 7 below) at concentrations up to 10 μM. At the end of the incubation (typically 4-8 days), the cells were collected, fixed in 70% ethanol on ice for >2 hours, washed, then labelled for 15 min at 37° C. with propidium iodide (0.2 mg/ml) (PI) in the presence of 0.1% Triton X100 and 0.2 mg/ml RNase and subjected to FACS analysis.

With `CC[C@@H]1C[C@H]2C[C@@](c3cc(F)ccc3F)(S(=O)(=O)c3ccc(C(F)(F)F)cc3)CC[C@H]2NS1(=O)=O` [Example 2, (3R,4aS,6S,8aR)-6-(2,5-difluorophenyl)-3-ethyl-6-{[4-(trifluoromethyl)phenyl]sulfonyl}octahydro-1H-2,1-benzothiazine 2,2-dioxide] the “cell cycle populations by FACS (propidium iodide)” value was “severe loss of G2- and S-phase populations”.
